In brackets after ≈: the same amount, converted by molar mass.
What was measured:
[1] = Solubility of compound in fasted state simulated intestinal fluid at pH 6.5; type: physicochemical
[2] = Solubility of compound in fed state simulated intestinal fluid at pH 5; type: physicochemical
[3] = Protein binding in cynomolgus monkey serum at 53 nM after 1 hr by ultracentrifugation assay; type: ADME, cell-free, Macaca fascicularis; conditions: read-out: PB (converted)
[4] = Protein binding in human serum at 53 nM after 1 hr by ultracentrifugation assay; type: ADME, cell-free; conditions: read-out: PB (converted)
[5] = Cmax in CD1 mouse at 5 mg/kg, po administered via gavage; type: ADME, organism-based; parameters: dose 5 mg/kg, route oral; conditions: in vivo
[6] = AUC (0 to infinity) in CD1 mouse at 1 mg/kg, iv; type: ADME, organism-based; parameters: dose 1 mg/kg, route intravenous, time infinity; conditions: in vivo
[7] = AUC (0 to infinity) in CD1 mouse at 5 mg/kg, po administered via gavage; type: ADME, organism-based; parameters: dose 5 mg/kg, time infinity, route oral; conditions: in vivo
[8] = Total plasma clearance in CD1 mouse at 1 mg/kg, iv; type: ADME, organism-based
[9] = Volume of distribution at steady state in CD1 mouse at 1 mg/kg, iv; type: ADME, organism-based; conditions: in vivo, read-out: Vdss
[10] = Cmax in Sprague-Dawley rat at 5 mg/kg, po; type: ADME, organism-based; parameters: dose 5 mg/kg, route oral; conditions: in vivo
[11] = Tmax in Sprague-Dawley rat at 5 mg/kg, po; type: ADME, organism-based; conditions: in vivo
[12] = AUC (0 to infinity) in Sprague-Dawley rat at 5 mg/kg, po; type: ADME, organism-based; parameters: dose 5 mg/kg, time infinity, route oral; conditions: in vivo
[13] = Total plasma clearance in Sprague-Dawley rat at 1 mg/kg, iv; type: ADME, organism-based
[14] = AUC (0 to infinity) in Sprague-Dawley rat at 5 mg/kg, id; type: ADME, organism-based; parameters: dose 5 mg/kg, time infinity; conditions: in vivo
[15] = Tmax in Sprague-Dawley rat at 5 mg/kg, id; type: ADME, organism-based; conditions: in vivo
[16] = Cmax in Sprague-Dawley rat at 5 mg/kg, po treated with 10 mg/kg elacridar immediately after compound dosing; type: ADME, organism-based; parameters: dose 5 mg/kg, route oral; conditions: in vivo, with elacridar 10 mg/kg
[17] = Cmax in beagle dog at 5 mg/kg, po administered via gavage as solution; type: ADME, organism-based, Canis lupus familiaris; parameters: dose 5 mg/kg, route oral; conditions: in vivo
Canis familiaris [18] = experiment: Half life in beagle dog at 1 mg/kg, iv; type: ADME, organism-based, Canis lupus familiaris; conditions: in vivo
[19] = Tmax in beagle dog at 5 mg/kg, po administered via gavage as microsuspension pre-treated with 6 ug/kg, im pentagastrin 15 to 30 mins before compound dosing; type: ADME, organism-based, Canis lupus familiaris; conditions: in vivo
[20] = Oral bioavailability in beagle dog at 5 mg/kg administered via gavage as microsuspension pre-treated with 6 ug/kg, im pentagastrin 15 to 30 mins before compound dosing; type: ADME, organism-based, Canis lupus familiaris; conditions: in vivo
[21] = Cmax in beagle dog at 5 mg/kg, po administered via gavage as microsuspension along with high fat meal; type: ADME, organism-based, Canis lupus familiaris; parameters: dose 5 mg/kg, route oral; conditions: in vivo
[22] = Tmax in beagle dog at 5 mg/kg, po administered via gavage as microsuspension along with high fat meal; type: ADME, organism-based, Canis lupus familiaris; conditions: in vivo
Canis familiaris [23] = experiment: AUC (0 to infinity) in beagle dog at 5 mg/kg, po administered via gavage as microsuspension along with high fat meal; type: ADME, organism-based, Canis lupus familiaris; parameters: dose 5 mg/kg, time infinity, route oral; conditions: in vivo
[24] = Cmax in beagle dog at 5 mg/kg, po administered via gavage as microsuspension pre-treated with 40 mg famotidine in capsule form 1 hr before compound dosing; type: ADME, organism-based, Canis lupus familiaris; parameters: dose 5 mg/kg, route oral; conditions: in vivo
[25] = Tmax in beagle dog at 5 mg/kg, po administered via gavage as microsuspension pre-treated with 40 mg famotidine in capsule form 1 hr before compound dosing; type: ADME, organism-based, Canis lupus familiaris; conditions: in vivo
[26] = AUC (0 to infinity) in beagle dog at 5 mg/kg, po administered via gavage as microsuspension pre-treated with 40 mg famotidine in capsule form 1 hr before compound dosing; type: ADME, organism-based, Canis lupus familiaris; parameters: dose 5 mg/kg, time infinity, route oral; conditions: in vivo
[27] = Cmax in cynomolgus monkey at 5 mg/kg, po administered via gavage; type: ADME, organism-based, Macaca fascicularis; parameters: dose 5 mg/kg, route oral; conditions: in vivo
[28] = Tmax in cynomolgus monkey at 5 mg/kg, po administered via gavage; type: ADME, organism-based, Macaca fascicularis; conditions: in vivo
[29] = AUC (0 to infinity) in cynomolgus monkey at 1 mg/kg, iv; type: ADME, organism-based, Macaca fascicularis; parameters: dose 1 mg/kg, time infinity, route intravenous; conditions: in vivo
[30] = Total plasma clearance in cynomolgus monkey at 1 mg/kg, iv; type: ADME, organism-based, Macaca fascicularis
[31] = Volume of distribution at steady state in cynomolgus monkey at 1 mg/kg, iv; type: ADME, organism-based, Macaca fascicularis; conditions: in vivo, read-out: Vdss
[32] = Oral bioavailability in cynomolgus monkey at 5 mg/kg administered via gavage; type: ADME, organism-based, Macaca fascicularis; conditions: in vivo
[33] = Tmax in MDR1 a/b knockout mouse at 5 mg/kg, po administered via gavage; type: ADME, organism-based; conditions: in vivo
[34] = Oral bioavailability in MDR1 a/b knockout mouse at 5 mg/kg administered via gavage; type: ADME, organism-based; conditions: in vivo
[35] = Half life in mouse liver microsomes at 0.5 uM after 1 hr in presence of NADPH by LC-MS/MS analysis; type: ADME, microsome
[36] = Half life in cynomolgus monkey liver microsomes at 0.5 uM after 1 hr in presence of NADPH by LC-MS/MS analysis; type: ADME, Macaca fascicularis, microsome
[37] = Half life in mouse hepatocytes at 0.5 uM after 1 hr in presence of NADPH by LC-MS/MS analysis; type: ADME, cell-based, Hepatocyte
[38] = Half life in human hepatocytes at 0.5 uM after 1 hr in presence of NADPH by LC-MS/MS analysis; type: ADME, cell-based, Hepatocyte
[39] = Stability of the compound in human liver microsomes in presence of […]; type: ADME, microsome
Salmonella typhimurium [40] = experiment: Mutagenicity in Salmonella typhimurium TA98 in presence of Aroclor 1254-induced rat liver S9 fraction at up to 1600 ug/plate; type: toxicity, organism-based; conditions: salmonella enterica subsp. enterica serovar typhimurium
Salmonella typhimurium [41] = experiment: Mutagenicity in Salmonella typhimurium TA100 in presence of Aroclor 1254-induced rat liver S9 fraction at up to 1600 ug/plate; type: toxicity, organism-based; conditions: salmonella enterica subsp. enterica serovar typhimurium
Cytochrome P450 3A4 = Cytochrome P450 3A4 (Homo sapiens, UniProt P08684); experiment: Drug metabolism assessed as recombinant CYP3A4 (unknown origin)-mediated oxidative metabolism; type: ADME; conditions: recombinant enzyme
[42] = molecular target: Human immunodeficiency virus type 1 Gag protein (Human immunodeficiency virus 1, UniProt Q77YG1)
Description: Binding affinity to wild type HIV1 gag polyprotein containing viral like particle

Gag-Pol polyprotein [43] = molecular target: Gag-Pol polyprotein (Human immunodeficiency virus type 1 group M subtype B (isolate HXB2)(HIV-1), UniProt P04585, V362I)
Gag-Pol polyprotein [44] = molecular target: Gag-Pol polyprotein (Human immunodeficiency virus type 1 group M subtype B (isolate HXB2)(HIV-1), UniProt P04585)
Description: Binding affinity to HIV1 gag polyprotein delta V370 mutant containing viral like particle

[45] = molecular target: Human immunodeficiency virus type 1 Gag protein (Human immunodeficiency virus 1) (UniProt Q77YG1)
Description: Binding affinity to wild type HIV1 gag polyprotein containing viral like particle assessed as dissociation half life

[46] = system: Gag-Pol polyprotein (Human immunodeficiency virus type 1 group M subtype B (isolate HXB2)(HIV-1)), P04585 [V370A]; conditions: Human immunodeficiency virus 1
in vitro [47] = conditions: human, MT2 cells
Description: Cytotoxicity against human MT2 cells assessed as reduction in cell viability

physchem = conditions: aqueous
Description: Aqueous solubility of the compound

in vitro [48] = conditions: rat, liver microsomes
Description: Half life in rat liver microsomes at 0.5 uM after 1 hr in presence of NADPH by LC-MS/MS analysis

in vitro [49] = conditions: human, liver microsomes
Description: Half life in human liver microsomes at 0.5 uM after 1 hr in presence of NADPH by LC-MS/MS analysis

[50] = system: Human immunodeficiency virus 1; experiment: microbe, parasite or virus in culture
Description: Antiviral activity against HIV1 expressing gag A364V mutant

Cytochrome P450 3A4, sequence (P08684 whole entry): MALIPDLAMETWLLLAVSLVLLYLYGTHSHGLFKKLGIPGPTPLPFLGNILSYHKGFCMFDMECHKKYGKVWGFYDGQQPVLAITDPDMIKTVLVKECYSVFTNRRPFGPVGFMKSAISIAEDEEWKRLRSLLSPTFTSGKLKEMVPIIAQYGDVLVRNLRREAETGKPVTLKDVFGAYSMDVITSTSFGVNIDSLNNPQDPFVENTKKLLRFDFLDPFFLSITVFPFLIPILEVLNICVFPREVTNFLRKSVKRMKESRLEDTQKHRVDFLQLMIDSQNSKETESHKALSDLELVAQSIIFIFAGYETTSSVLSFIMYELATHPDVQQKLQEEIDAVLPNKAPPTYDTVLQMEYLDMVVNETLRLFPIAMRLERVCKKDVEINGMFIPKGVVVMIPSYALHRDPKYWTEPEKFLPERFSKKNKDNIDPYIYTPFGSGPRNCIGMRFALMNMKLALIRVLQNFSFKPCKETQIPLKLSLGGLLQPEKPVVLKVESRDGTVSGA

For `C=C(C)[C@@H]1CC[C@]2(NCCN3CCS(=O)(=O)CC3)CC[C@]3(C)[C@H](CC[C@@H]4[C@@]5(C)CC=C(c6ccc(C(=O)O)cc6)C(C)(C)[C@@H]5CC[C@]43C)[C@@H]12` [BMS-955176], the solubility [1] was 280 µg/mL (≈ 405 µM), the solubility [2] was 1020 µg/mL (≈ 1480 µM) and the fraction unbound at 1 h, 0.053 µM [3] was 0.216. For the same compound, the fraction unbound at 1 h, 0.053 µM [4] was 0.139, the Cmax [5] was 2790 nM and the AUC(0-inf) [6] was 21.6 µM·h. For the same compound, the AUC(0-inf) [7] was 28.9 µM·h, the clearance [8] was 1.1 mL/min/kg and the Vd [9] was 0.82 L/kg. For the same compound, the Cmax [10] was 1200 nM, the Tmax [11] was 6 h and the AUC(0-inf) [12] was 14.2 µM·h. It also gave a clearance [13] of 2.2 mL/min/kg, an AUC(0-inf) [14] of 19.9 µM·h and a Tmax [15] of 1 h. For the same compound, the Cmax [16] was 1800 nM, the Cmax [17] was 560 nM and the t1/2 (Canis familiaris [18]) was 7.8 min. It also gave a Tmax [19] of 10.5 h, a bioavailability [20] of 26% and a Cmax [21] of 10.2 µM. For the same compound, the Tmax [22] was 10.5 h, the AUC (Canis familiaris [23]) was 643 µM·h and the Cmax [24] was 4.04 µM. The Tmax [25] was 13.5 h, the AUC(0-inf) [26] was 236 µM·h and the Cmax [27] was 62 nM. For the same compound, the Tmax [28] was 3.3 h, the AUC(0-inf) [29] was 13.6 µM·h and the clearance [30] was 1.9 mL/min/kg. It also gave a Vd [31] of 0.43 L/kg, a bioavailability [32] of 4% and a Tmax [33] of 3 h. The bioavailability [34] was 45%, the half-life at 0.5 µM [35] was over 120 min and the half-life at 0.5 µM [36] was 11 min. For the same compound, the half-life at 0.5 µM [37] was over 120 min, the half-life at 0.5 µM [38] was over 120 min and the Stability [39] was “Stable”. For the same compound, the Activity (Salmonella typhimurium [40]) was “Non-Toxic”, the Activity (Salmonella typhimurium [41]) was “Non-Toxic” and the Drug metabolism (Cytochrome P450 3A4) was “Metabolite_Detected”. For the same compound, the Kd [42] was 3.2 nM, the Kd (Gag-Pol polyprotein [43]) was 4.3 nM and the Kd (Gag-Pol polyprotein [44]) was 33.6 nM. The T1/2 [45] was 41 min, the T1/2 [46] was 36 min and the CC50 (in vitro [47]) was 9.2 µM. The solubility (physchem) was under 1 µg/mL, the half-life at 1 h, 0.5 µM (in vitro [48]) was over 120 min and the half-life at 1 h, 0.5 µM (in vitro [49]) was over 120 min. It also gave an EC50 [50] of 1480 nM.

Source: ChEMBL document CHEMBL4152347 (J Med Chem, 2018)
